Measurements published in patent US9234004B2, “Antimicrobial peptides” (Agency for Science, Technology and Research, priority 2010, dated 2016).
Values after ≈ are worked out from the molar mass of the structure shown. Like-named read-outs stand apart in the source and are kept apart here. Bridge positions count the residues as written; N and C are the ends. Ends that are not written are not given here. Peptide text beside a SMILES is read from it. I, II: the chains in the order shown.

How the values were obtained:
Type in all cases: cell-based
B. subtilis = conditions: 8 h
Method: (§1) Microbial cells were firstly re-constituted from its lyophilized form according to the manufacturer's protocol. Bacterial cells were cultured in tryptic soy broth (TSB) at 37° C., and yeast cells were cultured in yeast mould broth (YMB) at room temperature under constant shaking at 100 rpm. Broth containing an antimicrobial peptide was prepared at various concentrations (0.98, 1.95, 3.90, 7.81, 15.63, 31.25, 62.5, 125, 250, 500 mg/L) and transferred into a 96-well tissue culture plate (100 μL/well). Microorganism was first inoculated overnight to enter its log growth-phase. An equal volume of microorganism solution (100 μL) was added into each well of the 96-well plate containing the antimicrobial peptide. Prior to this mixing, the concentration of microorganism solution was adjusted to give an initial optical density (O.D.) reading of 0.1-0.2 at 600 nm wavelength. The growth of the microorganism was observed upon introducing the antimicrobial peptide by measuring the O.D. readings at 2 hour intervals for up to 8 hours. […] Broth containing microbial cells was used as the negative control, and each test was carried out in 6 replicates. The standard deviations of the 6 readings were reported as the error bars.

C. albicans = conditions: 8 h
Method: as §1

E. coli [1] = conditions: 8 h
Method: as §1

rat red blood cells = assay: Hemolytic activity test
Method: Peptides were obtained from GL Biochem (Shanghai, China), and their fidelity was further confirmed via matrix-assisted laser desorption/ionization time-of-flight mass spectroscopy (MALDI-TOF MS, Model Autoflex II, Bruker Daltonics Inc., U.S.A.), using α-cyano-4-hydroxycinnamic acid as matrix. The purity of the peptides was also tested to be more than 95% with analytical reverse phase (RP)-HPLC. α-Cyano-4-hydroxycinnamic acid (HCCA) was purchased from Sigma-Aldrich (Singapore) and used in saturated acetonitrile/water (1:1 volume ratio) after being re-crystallized. Sodium dodecyl sulphate (SDS) micelle solution (10% w/v in DI water) was obtained from 1st Base (Malaysia) and used upon dilution to the desirable concentration range. Tryptic soy broth (TSB) powder and yeast mould broth (YMB) powder were purchased from BD Diagnostics (Singapore) and used to prepare the microbial broths according to the manufacturer's instructions. Phosphate-buffered saline solution at 10× concentration was purchased from 1st Base (Malaysia) and used after dilution to the desired concentration. Ethanol (analytical grade, 99%) and glutaraldehyde (synthetic grade, 50% in H2O) were purchased from Sigma Aldrich (Singapore) and used as received. […] Red blood cells used in the experiments were obtained from rats maintained at the Animal Handling Units of the Biomedical Research Centers (Singapore). Human peripheral blood mononuclear cells (PBMCs) were extracted from healthy blood donors and maintained with RPMI medium supplemented with 10% lowendotoxin fetal bovine serum (FBS) and 1% penicillin-streptomycin. Granulocyte macrophage-colony stimulating factor (GM-CSF) and lipopolysaccharide were purchased from Sigma-Aldrich and used as received.
Fresh red blood cells were washed with PBS for three times, and were subjected to 25 times dilution with PBS to reach a concentration of approximately 4% (in volume) of the blood cells. The red blood cell suspension (100 μL) was placed into a 96-well cell culture plate and mixed with 100 μL of the antimicrobial peptide solution in PBS at concentrations of 0.98, 1.95, 3.90, 7.81, 15.63, 31.25, 62.5, 125, 250, 500 mg/L. The mixture was then incubated at 37° C. for 1 hour to allow for the hemolysis process to take place. At the end of incubation time, the non-hemolysed red blood cells were separated by centrifugation at 13000 g for 5 minutes. Aliquots (100 μL) of the supernatant were transferred into a new 96-well plate, and the hemoglobin release was measured by checking the UV-absorbance of the samples at 576 nm using a microplate reader (TECAN, Switzerland). Two controls were provided in this assay: an untreated red blood cell suspension in PBS was used as the negative control, and a solution containing red blood cells lysed with 0.1% Triton-X was used as the positive control. Each assay was performed in 6 replicates, and the data were expressed as means and standard deviations of the 6 replicates. Percentage of hemolysis was calculated using the following formula: Hemolysis (%)=[(O.D.576 nm of the treated sample−O.D.576 nm of the negative control)/(O.D.576 nm of positive control−O.D.576 nm of negative control)]×100%. Field Emission-Scanning Electron Microscopy (FE-SEM) Analysis of Bacterial Cells

[2] = test system: B. subtilis (ATCC No. 23857); conditions: ATCC No. 23857, 18 h
Method: (§2) Microbes were re-constituted from their dried pellets obtained from ATCC according to the recommended protocols. Bacterial culture was done in tryptic soy broth at 37° C., while yeast was cultured in yeast mould broth at room temperature, under constant shaking at 100 rpm. Briefly, microbial suspension was first adjusted to contain ˜3×10^8 CFU/mL, by adjusting its 600 nm absorbance to be equivalent to that of the standard McFarland 1 reference. The suspension was then diluted to contain ˜3×10^6 CFU/mL. Under this condition, the O.D. reading was approximately 0.05-0.06 for bacterial cultures, and 0.03-0.04 for yeast cultures. Equal volume (100 μL) of the microbial suspension and the peptide solutions was mixed in a 96-well plate, and the microbial growth was monitored by measuring the O.D. reading at 0 and 18 hours.

[3] = test system: C. albicans (ATCC No. 10231); conditions: ATCC No. 10231, 18 h
Method: as §2

[4] = test system: E. aerogenes (ATCC No. 13048); conditions: ATCC No. 13048, 18 h
Method: as §2

E. coli (ATCC No. 25922) = conditions: ATCC No. 25922, 18 h
Method: as §2

[5] = test system: P. aeruginosa (ATCC No. 9027); conditions: ATCC No. 9027, 18 h
Method: as §2

[6] = test system: S. aureus (ATCC No. 29737); conditions: ATCC No. 29737, 18 h
Method: as §2

[7] = test system: human red blood cells (hRBC)
Method: The peptides' hemolysis was tested in human red blood cells (hRBC). hRBCs were diluted 25× to achieve 4% concentration (v %) in phosphate-buffered saline (PBS, pH 7.4). Upon dilution, the blood suspension was treated with equal volume of (LLKK)4 (SEQ ID NO: 8), [(LLKK)2]2, or [(LLKK)2]4 peptide solution in PBS to reach final peptide concentrations of 0-500 mg/L. The treatment was performed inside a 37° C. incubator for 1 hour, after which the mixture was centrifuged at 1000 g for 5 mins to remove the non-hemolysed blood cells. The supernatant (100 μL) was transferred into a 96-well plate, and measured spectrophotometrically for its absorbance at 567 nm using a microplate reader (TECAN, Switzerland)^[5]. PBS and 0.1% Triton-X were used as negative and positive controls respectively. Hemolysis level was calculated according to the following formula: % Hemolytic=(Absorbance for Peptide treatment−Absorbance for PBS treatment)/(Absorbance for Triton treatment−Absorbance for PBS treatment)×100% Minimum Inhibitory Concentration (MIC)

E. coli [8] = conditions: 2
Method: (§3) E. coli and S. aureus were treated at MIC and 2×MIC concentrations with [(LLKK)2]4 peptide. At various time periods (0, 0.5, 1, 2, 5, 8 and 18 hours), microbial suspensions were diluted at 3 different dilutions and plated on 1.5% LB agar plates. Microbial colonies were formed and counted after 24 hours of incubation (for bacteria) or 48 hours of incubation (for yeast).

S. aureus = conditions: 2
Method: as §3

| Compound | MIC B. subtilis (B. subtilis) | MIC C. albicans (C. albicans) | MIC E. coli (E. coli [1]) | hemolysis at the MIC against B. subtilis (rat red blood cells) | HC50 (50% hemolytic concentration) (rat red blood cells; red cells of rat, 1 h) | MIC B. subtilis [2] | MIC C. albicans [3] | MIC E. aerogenes [4] | MIC E. coli (E. coli (ATCC No. 25922)) | MIC P. aeruginosa [5] | MIC S. aureus [6] | HC50 [7] | hemolytic activity towards human red blood cells, in words [7] | hemolysis at 500 mg/L ([7]; red cells of human, 500) | HC50 ([7]; red cells of human, 1 h) | cells killed after 1 hour (E. coli [8]; 1 h) | cells killed after 8 hours (E. coli [8]; 8 h) | cells killed after 1 hour (S. aureus; 1 h) | cells killed after 8 hours (S. aureus; 8 h) |
| --- | --- | --- | --- | --- | --- | --- | --- | --- | --- | --- | --- | --- | --- | --- | --- | --- | --- | --- | --- |
| LLKKLLKKLLKKLLKK-NH2 [(LLKK)4, LLKKLLKKLLKKLLKK-NH2] | 10 µg/mL | >50 µg/mL | >50 µg/mL | ~30% | ~24 mg/L | 6.3 µg/mL | >50 µg/mL | 25 µg/mL | 12.5 µg/mL | 6.3 µg/mL | >50 µg/mL | ~37.5 mg/L | significant hemolysis at concentrations around its MICs |  |  |  |  |  |  |
| CC(C)C[C@H](NC(=O)[C@H](CC(C)C)NC(=O)[C@H](CCCCN)NC(=O)[C@H](CCCCN)NC(=O)[C@H](CC(C)C)NC(=O)[C@@H](N)CC(C)C)C(=O)N[C@@H](CCCCN)C(=O)N[C@@H](CCCCN)C(=O)NCCCC[C@H](NC(=O)[C@H](CCCCN)NC(=O)[C@H](CCCCN)NC(=O)[C@H](CC(C)C)NC(=O)[C@H](CC(C)C)NC(=O)[C@H](CCCCN)NC(=O)[C@H](CCCCN)NC(=O)[C@H](CC(C)C)NC(=O)[C@@H](N)CC(C)C)C(=O)N[C@@H](CS)C(N)=O [[(LLKK)2]2, [LLKKLLKK]2K*C—CONH2] (I: H-LLKKLLKKKC-NH2 / II: H-LLKKLLKK; amide I:9-II:C) |  |  |  |  |  | 8 µg/mL (≈ 3.67 µM) | 63 µg/mL (≈ 28.9 µM) | 125 µg/mL (≈ 57.4 µM) | 31 µg/mL (≈ 14.2 µM) | 8 µg/mL (≈ 3.67 µM) | >500 µg/mL |  |  | ~18% | >500 mg/L |  |  |  |  |
| CC(C)C[C@H](NC(=O)[C@H](CC(C)C)NC(=O)[C@H](CCCCN)NC(=O)[C@H](CCCCN)NC(=O)[C@H](CC(C)C)NC(=O)[C@@H](N)CC(C)C)C(=O)N[C@@H](CCCCN)C(=O)N[C@@H](CCCCN)C(=O)NCCCC[C@H](NC(=O)[C@H](CCCCN)NC(=O)[C@H](CCCCN)NC(=O)[C@H](CC(C)C)NC(=O)[C@H](CC(C)C)NC(=O)[C@H](CCCCN)NC(=O)[C@H](CCCCN)NC(=O)[C@H](CC(C)C)NC(=O)[C@@H](N)CC(C)C)C(=O)N[C@@H](CSSC[C@H](NC(=O)[C@H](CCCCNC(=O)[C@H](CCCCN)NC(=O)[C@H](CCCCN)NC(=O)[C@H](CC(C)C)NC(=O)[C@H](CC(C)C)NC(=O)[C@H](CCCCN)NC(=O)[C@H](CCCCN)NC(=O)[C@H](CC(C)C)NC(=O)[C@@H](N)CC(C)C)NC(=O)[C@H](CCCCN)NC(=O)[C@H](CCCCN)NC(=O)[C@H](CC(C)C)NC(=O)[C@H](CC(C)C)NC(=O)[C@H](CCCCN)NC(=O)[C@H](CCCCN)NC(=O)[C@H](CC(C)C)NC(=O)[C@@H](N)CC(C)C)C(N)=O)C(N)=O [[(LLKK)2]4, [LLKKLLKK]2K*C—S—S—CK*[KKLLKKLL]2] (I: H-LLKKLLKKKC-NH2 / II: H-LLKKLLKKKC-NH2 / III: H-LLKKLLKK / IV: H-LLKKLLKK; amide I:9-III:C, II:9-IV:C; disulfide I:10-II:10) |  |  |  |  |  | 16 µg/mL (≈ 3.67 µM) | 125 µg/mL (≈ 28.7 µM) | 63 µg/mL (≈ 14.5 µM) |  | 8 µg/mL (≈ 1.84 µM) | 400 µg/mL (≈ 91.8 µM) |  | only hemolytic at an acceptable level |  | >500 mg/L | more than 50% | more than 99.99% | more than 50% | more than 99.99% |
